According to patent publication US20160000750A1, “COMBINATION OF EGCG OR METHYLATED EGCG AND A PDE INHIBITOR” (KYUSHU UNIVERSITY, NATIONAL UNIVERSITY CORPORATION, priority 2010, published 2016):

What was measured:
[1] = system: human multiple myeloma cell line, U266; assay: Involvement of 67LR (anti-67LR antibody MLuc5) in cell-killing and cytostatic activity, U266; assay type: cell-based; details: U266, 96-well; vardenafil 5 μM, EGCG 5 μM; 96 hours; without anti-67LR antibody (isotype control mouse IgM)
Method: A trypan blue staining solution was prepared by suspending trypan blue in PBS at a concentration of 1% and was used in investigation of the anti-cancer activity of a combination of EGCG and vardenafil by trypan blue assay. The PBS used was prepared by dissolving 8.0 g of NaCl, 0.2 g of KCl, 1.15 g of Na2HPO4, and 0.2 g of KH2PO4 in 1 L of ultrapure water, followed by autoclave sterilization.
A human multiple myeloma cell line, U266, and a human acute myeloid leukemia cell line, HL60, adjusted to be 5×10^4 cells/mL (U266) and 1×10^4 cells/mL (HL60), respectively, in an RPMI 1640 medium supplemented with 1% FCS were seeded in a 96-well plate (Falcon Co., Ltd.). Vardenafil was added thereto at a final concentration of 5 μM. Immediately after the addition, an anti-67LR monoclonal antibody, MLuc5 (Abcam PLC), was added thereto at a final concentration of 20 μg/mL. In the group of adding an isotype control antibody, mouse IgM (Cosmo Bio Co., Ltd., Tokyo) was added at a final concentration of 20 μg/mL. […]
The plate was returned to the incubator immediately after the addition of EGCG, followed by culturing for 96 hours. […] After 10 minutes, the number of the cells was counted with a hemocytometer. Unstained cells were deemed as viable cells, and the cell viability was determined as a ratio of the number of unstained cells in trypan blue staining to the total number of cells. […]

[2] = system: human multiple myeloma cell line, U266; assay: Apoptosis induction by Annexin V PI double staining, U266; assay type: cell-based; details: vardenafil 5 μM, EGCG 5 μM, 96 hours
Method: A propidium iodide (PI) staining solution was prepared by suspending PI (Sigma Corporation) in PBS at a concentration of 50 μg/mL and was used in investigation of the anti-cancer activity of a combination of EGCG and vardenafil by Annexin V PI double staining. The PBS used was prepared by dissolving 8.0 g of NaCl, 0.2 g of KCl, 1.15 g of Na2HPO4, and 0.2 g of KH2PO4 in 1 L of ultrapure water, followed by autoclave sterilization. The Annexin V Binding Buffer used was prepared with 10 mM HEPES, 140 mM NaCl, and 2.5 mM CaCl2 (Wako Pure Chemical Industries, Ltd.) to be pH 7.4, followed by filter sterilization.
Cell lines, U266 and HL60, adjusted to be 5×10^4 cells/mL (U266) and 1×10^4 cells/mL (HL60), respectively, in an RPMI 1640 medium supplemented with 1% FCS were seeded in a 96-well plate. […]
The plate was returned to the incubator immediately after the addition of EGCG, followed by culturing for 96 hours. […] The supernatant was removed, and the cells were suspended in an Annexin V Binding uffer, and the number of the cells was counted with a hemocytometer. […] Subsequently, 400 μL of an Annexin V Binding Buffer was added thereto from above, and the cells were counted with a flow cytometer, FACS Caliber (Becton, Dickinson and Company). After compensation, the Annexin V Alexa Fluor 488 Conjugate was measured at FL 1, and the cells deemed to be positive were determined as apoptotic cells. […]

(−)-epigallocatechin-3-O-gallate [EGCG]
cell viability (cell-killing activity) [1]: any cytotoxicity was not observed | apoptosis-inducing activity (apoptotic cell ratio) ([2]; Annexin V PI double staining): apoptosis was induced | apoptosis-inducing activity under treatment with anti-67LR antibody ([2]; anti-67LR antibody MLuc5 20 μg/mL): completely cancelled
